≈ marks a conversion by molar mass, not a printed value. Square brackets hold non-standard residues; d marks the D form. Peptide text beside a SMILES is read from it. Phe(4-Cl) = N[CH](Cc1ccc(Cl)cc1)C(=O)O; Phe(4-F) = N[CH](Cc1ccc(F)cc1)C(=O)O
Experiments:
in vitro [1] = details: human, microsomes, pH 7.4
in vitro [2] = details: human, plasma
[3] = Metabolic stability test, mouse liver microsomes; type: in vitro ADME; details: NADPH, 37° C.; for remaining at 0.5 h, 1 μM: pH 7.4, mouse liver microsomes 0.5 mg/ml, 30 m
AMPK phosphorylation [4] = experiment: AMPK phosphorylation activity in mouse adipocytes (Western blot); type: cell-based; details: 3T3-L1, 10 μM, 24 hours; for AMPK phosphorylation activity (fold change): APN5 = 1.0
Method: There were confirmed effects of the peptide derivatives of the present disclosure on the expression and receptor activity of adiponectin in mouse adipocytes as a main adiponectin production site. A mouse adipocyte cell line 3T3-L1 was treated with each of the peptide derivatives of the present disclosure at a concentration of 10 μM and cultured for 24 hours, and then cells were obtained. Thereafter, the proteins were extracted and the effect on AMPK phosphorylation, which was responsible for the main downstream signaling of adiponectin, was confirmed by Western blot.

[5] = Metabolic stability test, rat liver microsomes; type: in vitro ADME; details: NADPH, 37° C.; for remaining at 0.5 h, 1 μM: pH 7.4, rat liver microsomes 0.5 mg/ml, 30 m
Solubility test = details: kinetic from dmso stock
[6] = Plasma stability test, rat plasma; details: for remaining at 0.5 h, 1 μM / remaining at 2 h, 1 μM: rat, plasma
CYP2C19 = CYP2C19 (Homo sapiens, UniProt P33261); details: microsomes, 10 µM
Sequence of CYP2C19 (P33261 whole entry): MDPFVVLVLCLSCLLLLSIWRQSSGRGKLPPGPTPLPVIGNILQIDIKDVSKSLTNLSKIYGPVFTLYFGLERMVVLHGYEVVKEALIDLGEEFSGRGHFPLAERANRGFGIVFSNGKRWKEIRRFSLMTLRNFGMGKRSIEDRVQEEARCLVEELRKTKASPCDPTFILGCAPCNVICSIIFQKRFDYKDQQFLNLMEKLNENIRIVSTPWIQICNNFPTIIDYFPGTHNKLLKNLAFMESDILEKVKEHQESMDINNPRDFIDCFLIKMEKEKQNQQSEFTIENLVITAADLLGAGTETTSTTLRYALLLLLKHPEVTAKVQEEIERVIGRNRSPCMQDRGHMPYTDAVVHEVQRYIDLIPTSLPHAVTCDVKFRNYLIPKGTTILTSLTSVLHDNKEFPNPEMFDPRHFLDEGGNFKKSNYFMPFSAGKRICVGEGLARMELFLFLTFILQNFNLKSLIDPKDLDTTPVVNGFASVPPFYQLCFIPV
Method: (§1) Metabolites of each CYP isoenzyme indicator drug produced through the reaction were analyzed by LC-MS/MS using the Shimadzu Nexera XR system and TSQ vantage (Thermo).

CYP1A2 = target: T1, CYP1A2 (Homo sapiens, UniProt P05177); details: microsomes, 10 µM
T1 sequence (P05177 1-516): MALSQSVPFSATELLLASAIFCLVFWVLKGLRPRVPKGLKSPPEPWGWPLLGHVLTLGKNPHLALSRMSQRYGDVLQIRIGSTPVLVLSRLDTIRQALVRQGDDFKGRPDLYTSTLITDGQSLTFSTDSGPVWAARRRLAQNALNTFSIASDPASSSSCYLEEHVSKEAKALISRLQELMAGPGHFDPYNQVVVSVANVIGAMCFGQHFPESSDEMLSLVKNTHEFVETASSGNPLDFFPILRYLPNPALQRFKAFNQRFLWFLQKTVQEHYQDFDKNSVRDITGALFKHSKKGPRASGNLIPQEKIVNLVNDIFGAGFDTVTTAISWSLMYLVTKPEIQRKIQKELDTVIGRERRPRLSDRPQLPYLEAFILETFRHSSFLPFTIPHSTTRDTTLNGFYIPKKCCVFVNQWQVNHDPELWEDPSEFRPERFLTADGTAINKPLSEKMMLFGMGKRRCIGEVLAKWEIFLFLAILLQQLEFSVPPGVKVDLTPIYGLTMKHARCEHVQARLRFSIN
Method: as §1

CYP2C9 = CYP2C9 (Homo sapiens, UniProt P11712); details: microsomes, 10 µM
Sequence of CYP2C9 (P11712 whole entry): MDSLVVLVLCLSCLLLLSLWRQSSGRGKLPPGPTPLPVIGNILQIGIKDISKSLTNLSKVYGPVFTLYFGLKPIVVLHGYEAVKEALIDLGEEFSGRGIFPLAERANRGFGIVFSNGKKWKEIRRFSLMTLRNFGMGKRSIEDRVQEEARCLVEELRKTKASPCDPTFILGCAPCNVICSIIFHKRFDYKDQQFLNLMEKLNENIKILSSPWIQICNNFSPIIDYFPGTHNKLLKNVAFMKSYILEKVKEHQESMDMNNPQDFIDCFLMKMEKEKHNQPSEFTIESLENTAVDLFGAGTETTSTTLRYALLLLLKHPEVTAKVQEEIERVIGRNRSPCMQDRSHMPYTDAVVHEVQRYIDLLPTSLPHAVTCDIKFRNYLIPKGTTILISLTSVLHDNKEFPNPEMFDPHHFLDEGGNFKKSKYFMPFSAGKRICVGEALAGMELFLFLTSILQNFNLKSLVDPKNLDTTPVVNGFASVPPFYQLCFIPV
Method: as §1

CYP2D6 = CYP2D6 (Homo sapiens, UniProt P10635); details: microsomes, 10 µM
Sequence of CYP2D6 (P10635 whole entry): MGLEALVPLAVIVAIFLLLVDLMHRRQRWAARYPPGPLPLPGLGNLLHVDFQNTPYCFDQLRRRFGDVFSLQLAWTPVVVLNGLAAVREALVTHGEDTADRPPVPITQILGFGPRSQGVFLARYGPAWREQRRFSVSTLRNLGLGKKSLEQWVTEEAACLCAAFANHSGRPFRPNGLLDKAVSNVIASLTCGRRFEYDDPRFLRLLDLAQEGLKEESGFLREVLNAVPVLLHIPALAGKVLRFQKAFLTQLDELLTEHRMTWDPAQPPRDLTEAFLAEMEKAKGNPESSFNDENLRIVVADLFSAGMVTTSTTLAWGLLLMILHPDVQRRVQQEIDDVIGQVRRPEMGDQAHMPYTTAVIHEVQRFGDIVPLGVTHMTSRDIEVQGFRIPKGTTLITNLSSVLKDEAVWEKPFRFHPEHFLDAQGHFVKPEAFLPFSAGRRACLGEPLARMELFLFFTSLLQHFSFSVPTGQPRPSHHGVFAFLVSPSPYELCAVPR
Method: as §1

CYP3A4 = CYP3A4 (Homo sapiens, UniProt P08684); details: microsomes, 10 µM
Sequence of CYP3A4 (P08684 whole entry): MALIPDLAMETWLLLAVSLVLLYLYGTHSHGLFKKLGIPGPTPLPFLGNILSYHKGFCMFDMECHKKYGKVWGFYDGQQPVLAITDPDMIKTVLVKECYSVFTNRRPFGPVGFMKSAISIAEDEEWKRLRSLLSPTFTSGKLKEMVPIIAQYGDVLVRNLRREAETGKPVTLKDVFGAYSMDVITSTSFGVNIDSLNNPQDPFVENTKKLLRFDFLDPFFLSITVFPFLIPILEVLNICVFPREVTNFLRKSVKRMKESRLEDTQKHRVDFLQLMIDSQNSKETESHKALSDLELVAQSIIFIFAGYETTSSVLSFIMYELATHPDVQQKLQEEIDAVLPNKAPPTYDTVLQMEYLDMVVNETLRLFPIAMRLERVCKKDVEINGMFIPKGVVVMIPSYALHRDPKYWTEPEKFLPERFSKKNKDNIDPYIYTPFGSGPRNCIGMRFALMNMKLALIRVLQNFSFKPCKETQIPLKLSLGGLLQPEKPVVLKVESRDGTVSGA
Method: as §1

in vitro [7] = details: rat, plasma
physchem = details: pH 7.4, aqueous buffer, kinetic from dmso stock
AMPK phosphorylation [8] = experiment: Concentration dependence of AMPK phosphorylation activity (Western blot); type: cell-based, mouse; details: 3T3-L1, 0, 0.01, 0.1, 1, 10, and 100 μM, 24 hours
Method: A mouse adipocyte cell line 3T3-L1 was treated with the peptide derivative of the present disclosure at a series of concentrations of 0, 0.01, 0.1, 1, 10, and 100 μM and cultured for 24 hours, and then cells were obtained. Thereafter, the protein was extracted and the effect of the peptide derivative on AMPK phosphorylation in a concentration-dependent manner was confirmed by Western blot.

[9] = Plasma stability test, human plasma; details: for remaining at 0.5 h, 1 μM / remaining at 2 h, 1 μM: human, plasma
[10] = Metabolic stability test, human liver microsomes; details: for remaining at 0.5 h, 1 μM: human, microsomes, pH 7.4
adiponectin receptor 1 = target: T2, adiponectin receptor 1 (Mus musculus, UniProt Q91VH1); experiment: AMPK phosphorylation activity after knockdown of adiponectin receptor 1 (siRNA, Western blot); type: cell-based; details: 3T3-L1, adiponectin receptor 1 siRNA, 10 μM, 24 hours
T2 construct: a mouse adipocyte cell line 3T3-L1 was treated with siRNA of an adiponectin receptor 1 to be knocked down; endogenous in cells; host or cells: 3T3-L1 mouse adipocyte cell line
T2 sequence (Q91VH1 1-375): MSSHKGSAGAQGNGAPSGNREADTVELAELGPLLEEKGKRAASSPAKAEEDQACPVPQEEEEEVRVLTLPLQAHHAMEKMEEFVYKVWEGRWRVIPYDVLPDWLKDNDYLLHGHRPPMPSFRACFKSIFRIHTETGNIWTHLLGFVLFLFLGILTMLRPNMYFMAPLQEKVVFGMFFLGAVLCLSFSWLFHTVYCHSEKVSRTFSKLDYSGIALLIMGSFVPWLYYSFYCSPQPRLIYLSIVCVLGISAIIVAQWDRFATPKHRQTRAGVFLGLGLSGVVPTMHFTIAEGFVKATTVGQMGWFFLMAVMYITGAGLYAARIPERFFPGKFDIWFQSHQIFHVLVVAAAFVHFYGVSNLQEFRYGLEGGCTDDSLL
Method: In order to verify whether the peptide derivative of the present disclosure bound to an adiponectin receptor 1, a mouse adipocyte cell line 3T3-L1 was treated with siRNA of an adiponectin receptor 1 to be knocked down, and each of the peptide derivatives of the present disclosure was treated at 10 μM and cultured for 24 hours, and then cells were obtained. Thereafter, the proteins were extracted and it was confirmed by Western blot whether AMPK phosphorylation activity, which had been increased by the peptide derivatives, was lost.

[11] = tested on: 3T3-L1 adipocytes, RD muscle cells, keratinocytes, and fibroblasts; experiment: Cytotoxicity in vitro (MTT); type: cell-based; details: 0, 0.1, 1, 10, 100, and 500 μM, 24 hours
[12] = PRISMA HT buffer, pH 7.4, aqueous buffer

Structure (SMILES) | remaining at 0.5 h, 1 μM [3] | AMPK phosphorylation activity (fold change) (AMPK phosphorylation [4]) | remaining at 0.5 h, 1 μM [5] | solubility kinetic at 24 h (Solubility test; [12]) | remaining at 0.5 h, 1 μM [6] | remaining at 2 h, 1 μM [6] | CYP inhibition (% of control activity) CYP2C19 (CYP2C19) | CYP inhibition (% of control activity) CYP2D6 (CYP2D6) | CYP inhibition (% of control activity) CYP3A4 (CYP3A4) | AMPK phosphorylation activity after knockdown of the adiponectin receptor 1 (adiponectin receptor 1) | AMPK phosphorylation activity compared to APN5 (in words) (AMPK phosphorylation [4]) | further results
CC(C)C[C@H](NC(=O)CN)C(=O)N[C@@H](Cc1ccc(O)cc1)C(=O)N[C@@H](Cc1ccc(O)cc1)C(=O)N[C@@H](Cc1ccccc1)C(=O)O [APN5, NH2-GLYYF-OH, reference compound] | 9.5% | 1.0 fold change | 1.3% | 8.2 µg/mL (≈ 12.4 µM) | 83.1% | 70.5% | 98.5 % of control activity | 92.3 % of control activity | 82.9 % of control activity | – | – | remaining at 0.5 h, 1 μM (in vitro [1]): 1.7%; remaining at 0.5 h, 1 μM (in vitro [2]): < 1%; remaining at 2 h, 1 μM (in vitro [2]): < 1%; CYP inhibition (% of control activity) CYP1A2 (CYP1A2): 88.8 % of control activity; CYP inhibition (% of control activity) CYP2C9 (CYP2C9): >100 % of control activity
CC(=O)NC(CC(=O)O)C(=O)NC(Cc1ccc(O)cc1)C(=O)NC(Cc1ccc(O)cc1)C(=O)NC(Cc1ccccc1)C(=O)O (stereo not drawn) [DS-28, AcNH-DYYF-OH] (Ac-DYYF-OH; configuration not given here) | 96.6% | 1.9 fold change | 85.8% | – | – | – | 87.2 % of control activity | 86.1 % of control activity | 95.5 % of control activity | – | – | remaining at 0.5 h, 1 μM (in vitro [1]): 93.8%; remaining at 0.5 h, 1 μM (in vitro [2]): 17.6%; remaining at 2 h, 1 μM (in vitro [2]): 3.1%; remaining at 0.5 h, 1 μM (in vitro [7]): > 100%; remaining at 2 h, 1 μM (in vitro [7]): > 100%; solubility at 24 h (physchem): 321 µg/mL (≈ 495 µM); concentration dependence of AMPK phosphorylation activity (AMPK phosphorylation [8]): increased AMPK phosphorylation activity in a concentration-dependent manner; CYP inhibition (% of control activity) CYP1A2 (CYP1A2): 81.7 % of control activity; CYP inhibition (% of control activity) CYP2C9 (CYP2C9): 96.9 % of control activity
Cc1cc(CC(NC(=O)C(CC(=O)O)NC(=O)CN)C(=O)NC(Cc2ccc(O)cc2)C(=O)NC(Cc2ccccc2)C(N)=O)cc(C)c1O (stereo not drawn) [DS-41, NH2-GDY(Dmt)YF-NH2] | 95.2% | – | 75.1% | – | > 100% | 99.6% | – | – | – | – | – | remaining at 0.5 h, 1 μM [9]: < 1%; remaining at 2 h, 1 μM [9]: < 1%; remaining at 0.5 h, 1 μM [10]: 95.8%
O=C(COc1ccc(C(=O)c2ccccc2)cc1)NC1CCN(Cc2ccccc2)CC1 [DS-43, adiporon, reference compound] | – | – | – | – | – | – | 66.0 % of control activity | 30.3 % of control activity | 90.3 % of control activity | – | – | Plasma stability (% remaining) Human, 30 m ([9]; human plasma, 1 μM, 37° C., 30 m): >100 % remaining; Plasma stability (% remaining) Human, 120 m ([9]; human plasma, 1 μM, 37° C., 120 m): >100 % remaining; Metabolic stability (% remaining) Human, 30 m ([10]; human liver microsomes 0.5 mg/ml, 1 μM, NADPH, 37° C., 30 m): 54.9 % remaining; Metabolic stability (% remaining) Mouse, 30 m ([3]; mouse liver microsomes 0.5 mg/ml, 1 μM): 3.1 % remaining; Metabolic stability (% remaining) Rat, 30 m ([5]; rat liver microsomes 0.5 mg/ml, 1 μM): 2.3 % remaining; solubility kinetic at 24 h (Solubility test; PRISMA HT buffer (diluted 1:40 in distilled water), pH 7.4, pH 7.4, aqueous buffer): 43.7 µg/mL (≈ 102 µM); Plasma stability (% remaining) Rat, 30 m ([6]; rat plasma, 1 μM, 37° C., 30 m): >100 % remaining; Plasma stability (% remaining) Rat, 120 m ([6]; rat plasma, 1 μM, 37° C., 120 m): >100 % remaining
CC(C)CC(NC(=O)CN)C(=O)NC(Cc1ccc(O)cc1)C(=O)NC(Cc1ccc(O)cc1)C(=O)N(C)C(Cc1ccccc1)C(N)=O (stereo not drawn) [DS-48, NH2-GLYYF(N-Me)-NH2] | 20.6% | 1.5 fold change | 2.8% | – | > 100% | 84.9% | – | – | – | decreased the AMPK phosphorylation activity after knockdown of the adiponectin receptor 1 | significant effect of increasing AMPK phosphorylation activity | remaining at 0.5 h, 1 μM [9]: 1.1%; remaining at 2 h, 1 μM [9]: < 1%; remaining at 0.5 h, 1 μM [10]: 21.6%; cytotoxicity [11]: no toxicity; solubility at 24 h (Solubility test; PRISMA HT test buffer, pH 7.4, aqueous buffer): 334 µg/mL (≈ 495 µM); concentration dependence of AMPK phosphorylation activity (AMPK phosphorylation [8]): increased AMPK phosphorylation activity in a concentration-dependent manner
CC(C)CC(NC(=O)CN)C(=O)NC(Cc1ccc(F)cc1)C(=O)NC(Cc1ccc(O)cc1)C(=O)NC(Cc1ccccc1)C(N)=O (stereo not drawn) [DS-51, NH2-GLF(4-F)YF-NH2] (H-GL[Phe(4-F)]YF-NH2; configuration not given here) | – | 1.3 fold change | – | – | – | – | – | – | – | decreased the AMPK phosphorylation activity after knockdown of the adiponectin receptor 1 | significant effect of increasing AMPK phosphorylation activity | solubility at 24 h (physchem): 136 µg/mL (≈ 204 µM)
CC(C)CC(NC(=O)CN)C(=O)NC(Cc1ccc(Cl)cc1)C(=O)NC(Cc1ccc(O)cc1)C(=O)NC(Cc1ccccc1)C(N)=O (stereo not drawn) [DS-52, NH2-GLF(4-C1)YF-NH2] (H-GL[Phe(4-Cl)]YF-NH2; configuration not given here) | – | 1.2 fold change | – | – | – | – | – | – | – | decreased the AMPK phosphorylation activity after knockdown of the adiponectin receptor 1 | significant effect of increasing AMPK phosphorylation activity | –
O=C(O)Cc1ccccc1Nc1c(Cl)cccc1Cl [Diclofenac] | – | – | – | 157 µg/mL (≈ 530 µM) | – | – | – | – | – | – | – | –
Nc1ccc(/N=N/c2ccccc2)c(N)n1 [Phenazopyridine] | – | – | – | 23.8 µg/mL (≈ 111 µM) | – | – | – | – | – | – | – | –

Source: US20250049891A1, “NOVEL PEPTIDE DERIVATIVE DERIVED FROM ADIPONECTIN AND USE THEREOF” (SEOUL NATIONAL UNIVERSITY HOSPITAL, priority 2021, published 2025)
